The test system of series [1] is patients with relapsing form of clinically definite MS who relapsed while taking Rebif®. As to the kind of experiment: Example 2: oral Cladribine added to Rebif in MS patients with a relapse while taking Rebif (MRI brain lesions, safety). The series is classed as in vivo, human.
The subject of series [2] is patients with primary progressive (PP) or secondary progressive (SP) multiple sclerosis. The following applies: Phase III; 0.07 mg/kg/day s.c., repeated for 2 or 6 months; cited from earlier work.
For series [3], the system named is patients with Chronic Progressive MS and Relapsing-Remitting MS. The following applies: cited from earlier work.
Series [4] concerns patients with remitting-relapsing multiple sclerosis. Particulars: oral, 6 monthly courses of 5 days, total dose about 4-5.7 mg/kg; compared with i.v. infusion study (Sipe et al., 1994); cited from earlier work.
Series [5] has as its system patients with relapsing forms of clinically definite multiple sclerosis. As to the kind of experiment: Example 1: oral Cladribine in patients with relapsing forms of MS (MRI brain lesions, safety). The class given is in vivo, human. Particulars: for brain lesions (MRI): then maintenance.
Source text: Each patient is first examined for normal hepatic, renal, and bone marrow functioning to establish baseline values. Patients are selected from Male or Female, between 18 and 55 years of age who had one or more relapses within the prior 12 months. Female patients are non-pregnant female. […] Patients are monitored to determine whether there is any progression or improvement of brain lesions associated with progression of MS through MRI scans and neurological examination as described in Miller et al., 1996, above; Evans et al., 1997, above; Sipe et al., 1984, above; and Mattson, 2002, above. All patients have a baseline and MRI study (brain or spinal cord, according to localization of the lesions) at month 12. The patient's disability progression and the time for having a first relapse are monitored as well as the proportion of relapse-free patients at 24 months. Lymphocyte markers and monocyte counts are monitored in the patients.
[6] abbreviates: oral 2-CdA induction and maintenance treatments combined with Rebif 44 mcg s.c. TIW, 96 weeks.
The mark [7] stands for this setting: oral 2-CdA cyclodextrin tablets, induction treatment followed by maintenance treatments.

This is an account of results in patent US12377056B2, “Cladribine regimen for treating multiple sclerosis” (priority 2006, dated 2025).

Molecules are shown by their SMILES.

As for `Nc1nc(Cl)nc2c1ncn2[C@H]1C[C@H](O)[C@@H](CO)O1` [Cladribine, 2-chloro-2′deoxyadenosine], the “brain lesions (MRI)” value in series [1] (Group 2: low dose cladribine (1.75 mg/kg induction + 1.75 mg/kg maintenance) added to Rebif 44 mcg s.c. TIW), in series [1] (Group 3: high dose cladribine (3.5 mg/kg induction + 1.75 mg/kg maintenance) added to Rebif 44 mcg s.c. TIW), in series [5] (Group 2: oral 2-CdA total dose 1.75 mg/kg over 2 months induction) and in series [5] (Group 3: oral 2-CdA total dose 3.5 mg/kg over 4 months induction) was “decrease in brain lesions” each time. Moreover, the adverse effects result in series [1] (setting [6]) and in series [5] (setting [7]) was “no severe adverse effect is observed” throughout. The “effect of the regimen on brain lesions” value in series [1] (setting [6]) and in series [5] (setting [7]) was “efficient in decreasing brain lesions” throughout. For the same compound, in series [2], the MRI-measured brain lesions entry is “significant reduction of MRI-measured brain lesions”. Further, the “EDSS, SNRS scores and MRI findings” value in series [3] (Phase II, 0.1 mg/kg/day 7 days i.v. x 4 months or 0.07 mg/kg/day 5 days s.c. x 6 months) is listed as “positive effects”. Besides, in series [3] (observed with the highest doses (Selby et al., 1998; Beutler et al., 1994)), the “adverse effects (AEs)” value is reported as “increased incidence of infections related to compromised immune function or myelosuppression”. Also, the side effects entry in series [4] was “less severe”.
